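96-well plates; 48 h exposure; 5 concentrations. Endpoints by linear interpolation between flanking doses. Not reached: highest tested concentration assigned. TGI is the concentration that stops growth completely.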
Columns and labels:
Assay in all cases: NCI tumour cell line growth inhibition, 48 h
A498 renal = test system: A498 renal
A549 NSCLC = test system: A549 NSCLC
BT-549 breast = test system: BT-549 breast
CAKI-1 renal = test system: CAKI-1 renal
CCRF-CEM leukemia = test system: CCRF-CEM leukemia
COLO 205 colon = test system: COLO 205 colon
DU-145 prostate = test system: DU-145 prostate
EKVX NSCLC = test system: EKVX NSCLC
HCC-2998 colon = test system: HCC-2998 colon
HCT-116 colon = test system: HCT-116 colon
HCT-15 colon = test system: HCT-15 colon
HL-60(TB) leukemia = test system: HL-60(TB) leukemia
HOP-62 NSCLC = test system: HOP-62 NSCLC
HOP-92 NSCLC = test system: HOP-92 NSCLC
HT29 colon = test system: HT29 colon
IGROV1 ovarian = test system: IGROV1 ovarian
K-562 leukemia = test system: K-562 leukemia
LOX IMVI melanoma = test system: LOX IMVI melanoma
M14 melanoma = test system: M14 melanoma
MALME-3M melanoma = test system: MALME-3M melanoma
MCF7 breast = test system: MCF7 breast
MDA-MB-231 breast = test system: MDA-MB-231 breast
MDA-MB-435 = test system: MDA-MB-435
MDA-N = test system: MDA-N
MOLT-4 leukemia = test system: MOLT-4 leukemia
NCI-H226 lung = test system: NCI-H226 lung
NCI-H23 lung = test system: NCI-H23 lung
NCI-H460 lung = test system: NCI-H460 lung
NCI/ADR-RES ovarian = test system: NCI/ADR-RES ovarian
OVCAR-3 ovarian = test system: OVCAR-3 ovarian
OVCAR-4 ovarian = test system: OVCAR-4 ovarian
OVCAR-5 ovarian = test system: OVCAR-5 ovarian
OVCAR-8 ovarian = test system: OVCAR-8 ovarian
PC-3 prostate = test system: PC-3 prostate
RXF 393 renal = test system: RXF 393 renal
SF-295 CNS = test system: SF-295 CNS
SF-539 CNS = test system: SF-539 CNS
SK-MEL-2 melanoma = test system: SK-MEL-2 melanoma
SK-MEL-5 melanoma = test system: SK-MEL-5 melanoma
SK-OV-3 ovarian = test system: SK-OV-3 ovarian
SN12C renal = test system: SN12C renal
SNB-19 CNS = test system: SNB-19 CNS
SR leukemia = test system: SR leukemia
SW-620 colon = test system: SW-620 colon
T-47D breast = test system: T-47D breast
TK-10 renal = test system: TK-10 renal
U251 CNS = test system: U251 CNS
UACC-257 melanoma = test system: UACC-257 melanoma
UACC-62 melanoma = test system: UACC-62 melanoma
UO-31 renal = test system: UO-31 renal
786-0 renal = test system: 786-0 renal
ACHN renal = test system: ACHN renal
HS 578T breast = test system: HS 578T breast
KM12 colon = test system: KM12 colon
NCI-H522 lung = test system: NCI-H522 lung
RPMI-8226 leukemia = test system: RPMI-8226 leukemia
SF-268 CNS = test system: SF-268 CNS
SK-MEL-28 melanoma = test system: SK-MEL-28 melanoma
SNB-75 CNS = test system: SNB-75 CNS

Measured: TGI

CC(C)(C)OC(=O)NC(Cc1ccccc1)C(=O)N[C@H]1c2ccsc2/C(=N/O)[C@H]1O (some centres undefined)
not listed: 786-0 renal | ACHN renal | HS 578T breast | KM12 colon | NCI-H522 lung | RPMI-8226 leukemia | SF-268 CNS | SK-MEL-28 melanoma | SNB-75 CNS
> 100 µM: all other assays above

Cn1c(N)c(/C=N/NC(=O)CC#N)c(=O)n(C)c1=O
not listed: HL-60(TB) leukemia | HOP-92 NSCLC | K-562 leukemia | NCI-H23 lung | SF-539 CNS
> 100 µM: all other assays above

— PubChem BioAssay (NCI)
